Tests used:
[1] = rats, oral methionine 200 mg/kg/day for 14 days; cited from earlier work
[2] = rat, oral
Description: The effect of prophylactic administration of n-acetylcysteine (NAC) on acetaminophen hepatotoxicity can be determined in the rat. In a double-blind placebo study, four groups of rats are given one of the following oral dosings: “NAC-free” (NF), low NAC (LN), medium NAC (MN), or high NAC(HN). Then rats in all groups are administered a toxic dose of acetaminophen (1 g/kg body weight) orally. After 24 hours, animal are euthanized and assessed for hepatotoxicity by the elevation of serum transaminases and by a necrotic score based on histological examination.
In the following protocol, all rats in the study are given the LD50 dose of acetaminophen (determined by the dosage of acetaminophen that causes 50% of the test subjects to expire after a predetermined period of time). […] The study is conducted in double-blind fashion; four groups of rats are given one of the following oral dosings: “NAC-free” (NF or placebo), low NAC (LN), medium NAC (MN), or high NAC(HN). Then rats in all groups are administered a LD50 dose of acetaminophen. All animals are euthanized 3 weeks later and hepatotoxicity assessed by the elevation of serum transaminases and by a necrotic score based on histological examination. Mortality in all groups will also be followed as the added criterion.

[3] = person, 4 grams/day; cited from earlier work
[4] = Mucomyst monograph; cited from earlier work
[5] = male, human, in vivo
From the text: A construction worker* fell from a height of about 8 feet, severely breaking their right ankle and wrist. (*to promote privacy and simplify description of the invention, the patient and symptoms described here are a composite of data from typical patients). Orthopedic surgery repaired the injury, followed by prolonged and painful rehabilitation. A prescription for 60 Vicodin tablets (a composition comprising acetaminophen and hydrocodone) is given routinely during such post-surgical recovery periods. Typcially, the first day 4 to 8 vicodin tablets manage pain (often in combination with sedatives and the aftereffects of surgical anesthetics).
On the second day, at least 8 Vicodin® tablets are generally required to get the same analgesic effect (Vicodin is a well known trademark, which will also be referred to herein by “vicodin”). Subsequently, it is common that more than 10 vicodin tablets per day are taken, contrary to the doctor's instructions, yet less pain relief is noted with this higher dosage. At this rate, the patient must seek a refill in only a week; often doctors refilling such prescriptions give a stern advisory about taking too many pills and the dangers of Tylenol/acetaminophen. Subsequently, the patient sought prescriptions from other physicians and took 30 Vicodin tablets each day. […]

SMILES | angiotoxic effects [1] | concentrations of homocysteine in serum [1] | LD50 dose of acetaminophen [2] | hepatotoxicity at recommended dose [3] | large overdose that saturates glucuronide and sulfate conjugation pathways, leading to hepatic cellular necrosis [4] [mg·kg] | destruction of liver [5]
CSCC[C@H](N)C(=O)O [methionine] | angiotoxic effects similar to atherosclerosis | increased | – | – | – | –
CC(=O)Nc1ccc(O)cc1 [acetaminophen, N-acetyl-p-aminophenol] | – | – | 0.5 g/kg of Body weight | severe hepatotoxicity | ≥ 150 | over 90%
